{
  "source": "patent US7713948B2",
  "about": "“Use of 5-substituted nucleosides for reinforcing the apoptotic effect of cytostatic drugs” (Resprotect GmbH, priority 2003, dated 2010)",
  "key": {"AH13r tumour cells": {"system": "AH13r tumour cells", "assay": "Hoechst 33258/propidium iodide (Hopi) double colouration for apoptosis", "assay_type": "cell-based", "details": "HOPI double colouration of AH13r tumour cells of the rat"}, "[1]": {"system": "UBIQUITIN-CONJUGATING ENZYME E2N; UBE2N", "assay": "Two-dimensional gel electrophoresis, UBE2N", "assay_type": "cell-based", "details": "co-treatment of MMC with BVDU", "from_the_text": "(§1) Listing of the proteins influenced by the treatment with base analogues and mitomycin C. The results of the implementation of a two-dimensional gel electrophoresis are compiled in the following Table 2."}, "AH13r sarcoma cells": {"system": "AH13r sarcoma cells", "assay": "AH13r cell number under increasing doses of cytostatic with or without BVDU, followed by recovery phase", "assay_type": "cell-based, rat", "details": "for cell number: cytostatic + BVDU after three treatment cycles, in comparison to cytostatic alone", "from_the_text": "This effect was established by means of a screening system according to the invention. This screening method is based on the treatment of tumour cells during a chemotherapy cycle over a period of preferably eight to thirty days with increasing doses of a cytostatic and a constant dose of the overexpression inhibitor. After this combination treatment, the cytostatic is discontinued and the treatment is continued solely with the overexpression inhibitor. This recovery phase (also called recovery phase) lasts preferably between 3 and 10 days. Chemotherapy cycles of this type can be implemented successively up to 6 times.\nAH13r cells were subjected to increasing doses of the cytostatic mitomycin C (MMC). […] This inhibitory effect was maintained even after discontinuation of the cytostatic in the next cycle, in the so-called recovery phase. The cells without MMC and BVDU continued to grow without inhibition."}, "STAT3": {"system": "STAT3", "assay": "Western Blot analysis of survival pathways, STAT3", "assay_type": "cell-based", "details": "after DOX treatment, recovery phase (only BVDU given, no cytostatic)", "from_the_text": "(§2) We tested different “survival pathways” by means of Western Blot analysis. The analyses were implemented according to standard methods, as is described in Sambrook et al., 2001, Molecular Cloning (3rd ed.). Antibody dilutions: P-STAT3 (cell signalling) 1:500, JUN-D (Santa Cruz, Calif.) 1:1,000.\n(§3) The densitometrically determined content of oncogene proteins JUN-D and STAT3 was reduced by a quarter or two thirds after DOX treatment in the recovery phase (r=recovery phase). In the “recovery” only BVDU is given, no cytostatic."}, "[2]": {"system": "APURINIC ENDONUCLEASE; APE; APE1; APEX", "assay": "Two-dimensional gel electrophoresis, APEX", "assay_type": "cell-based", "details": "co-treatment of MMC with BVDU", "from_the_text": "as §1"}, "JUN-D": {"system": "JUN-D", "assay": "Western Blot analysis of survival pathways, JUN-D", "assay_type": "cell-based", "from_the_text": "as §2, §3"}, "[3]": {"system": "dimethybenzanthracene (DMBA) induced tumours", "assay": "DMBA-induced tumours in SD rats, tumour size", "assay_type": "in vivo", "details": "DOX 1 mg/kg", "description": "(§4) The reduction in toxic side effects of doxorubicin (DOX) was able to be shown in the test with rats (see Table 1). SD rats were treated with dimethybenzanthracene (DMBA). […] During the treatment and one day after each treatment, i.e. in the recovery phase, the animals obtained respectively 15 mg/kg BVDU."}, "[4]": {"assay": "DMBA tumour test in SD rats, animal weight (toxic side effects)", "assay_type": "in vivo", "description": "DT-D inactivates ROS and thus protects cells from non-specific ROS and electrophilic attacks. […] DOX treatment alone leads to weight losses because of the toxic side effects. It is certain that only the side effects (possibly the cardiotoxicity characteristic of DOX) are reduced by BVDU but not the toxic effects on the tumour.\nas §4"}},
  "note": "“Also recorded” adds a separate entry of the source.",
  "data": [
    {"smiles": "O=c1[nH]c(=O)n([C@H]2C[C@H](O)[C@@H](CO)O2)cc1/C=C/Br", "note": "[BVDU, (E)-5-(2-bromovinyl)-2′-deoxyuridine]", "values": [
      {"measurement": "apoptosis", "setting": "AH13r tumour cells", "value": "promotes apoptosis"},
      {"measurement": "reduction of overexpression of UBE2N", "setting": "[1]", "value": "approximately one third"},
      {"measurement": "cell growth in the recovery phase", "setting": "AH13r sarcoma cells; after discontinuation of the cytostatic, BVDU continued alone", "value": "greatly inhibited in their growth"},
      {"measurement": "toxic effect on cells", "setting": "AH13r sarcoma cells; given alone", "value": "no toxic effect"},
      {"measurement": "reduction of densitometrically determined content of STAT3", "setting": "STAT3", "value": "approximately two thirds"},
      {"measurement": "reduction of overexpression of APEX", "setting": "[2]", "value": "approximately one third"},
      {"measurement": "inhibition of MMC induced JUN-D overexpression", "setting": "JUN-D; BVDU given in the recovery after MMC", "value": "complete inhibition"},
      {"measurement": "reduction of densitometrically determined content of JUN-D", "setting": "JUN-D; after DOX treatment, recovery phase (only BVDU given, no cytostatic)", "value": "approximately one quarter; also recorded: a quarter"}
    ]},
    {"smiles": "COc1cccc2c1C(=O)c1c(O)c3c(c(O)c1C2=O)C[C@@](O)(C(=O)CO)C[C@@H]3O[C@H]1C[C@H](N)[C@H](O)[C@H](C)O1", "note": "[DOX, doxorubicin]", "values": [
      {"measurement": "apoptosis", "setting": "AH13r tumour cells", "value": "initiate apoptosis"},
      {"measurement": "Relative tumour size Day 1", "setting": "[3]; DMBA-induced tumours, BVDU 15 mg/kg, average of 5-8 rats, Day 1", "value": 1},
      {"measurement": "Relative tumour size Day 16", "setting": "[3]; DMBA-induced tumours, BVDU 15 mg/kg, average of 5-8 rats, Day 16", "value": 1.5},
      {"measurement": "growth of DMBA-induced tumours", "setting": "[3]", "value": "inhibited in their growth"},
      {"measurement": "Relative animal weight Day 1", "setting": "[4]; SD rats, DMBA-induced tumours, DOX 1 mg/kg, BVDU 15 mg/kg, average of 5-8 rats, Day 1", "value": 0},
      {"measurement": "Relative animal weight Day 16", "setting": "[4]; SD rats, DMBA-induced tumours, DOX 1 mg/kg, BVDU 15 mg/kg, average of 5-8 rats, Day 16", "value": "−7", "unit": "%"},
      {"measurement": "animal weight change (toxic side effects)", "setting": "[4]; rat, in vivo", "value": "weight losses"},
      {"measurement": "cell number", "setting": "AH13r sarcoma cells", "value": "Corresponding results"}
    ]},
    {"smiles": "CO[C@@]12[C@H](COC(N)=O)C3=C(C(=O)C(C)=C(N)C3=O)N1C[C@@H]1N[C@@H]12", "note": "[MMC, mitomycin C]", "values": [
      {"measurement": "apoptosis", "setting": "AH13r tumour cells", "value": "initiate apoptosis"}
    ]},
    {"smiles": "CN(Cc1cnc2nc(N)nc(N)c2n1)c1ccc(C(=O)N[C@@H](CCC(=O)O)C(=O)O)cc1", "note": "[MTX, methotrexate]", "values": [
      {"measurement": "cell number", "setting": "AH13r sarcoma cells", "value": "Corresponding results"}
    ]},
    {"smiles": "O=C1c2c(O)ccc(O)c2C(=O)c2c(NCCNCCO)ccc(NCCNCCO)c21", "note": "[MXA, mitoxantrone]", "values": [
      {"measurement": "apoptosis", "setting": "AH13r tumour cells", "value": "initiate apoptosis"},
      {"measurement": "cell number", "setting": "AH13r sarcoma cells", "value": "Corresponding results"}
    ]}
  ]
}
